How the values were obtained:
Assay type in all cases: in vivo
[1] = tested on: CRP in serum in COPD model mouse; assay: Effect on CRP in serum in COPD model mouse; conditions: ELISA, ig 7 d, dose/kg: dexamethasone 1 mg, Test group 1 50, 2 25, 3 10, picrinine 10, vallesamine 6, scholaricine 7, 19-epi-scholaricine 2 mg, x ± SD
Description: (§1) Animal source: 25˜30 g male ICR mouse, from laboratory animal department of Kunming Medical University, License No. SCXK (Dian) 2011-0004.
(§2) Method and route: lipopolysaccharide (LPS) plus smoke exposure was used for 30 days to induce mouse chronic obstructive pulmonary disease model; and after intragastrical administration for 7 d at a dose of 20 mL/kg, the animal was sacrificed at the eighth day.
(§3) Picrinine group (10 mg/kg), Vallesamine group (6.0 mg/kg), Scholaricine group (7.0 mg/kg), 19-epischolaricine group (2.0 mg/kg).
(§4) Sample preparation: all the samples were prepared by using 0.5% carboxymethylcellulose sodium (0.5% CMC-Na).
Group and dose: in Test group 1, the ratio of picrinine, vallesamine, scholaricine and 19-epischolaricine by weight was 25:19:20:4, and the other groups and doses thereof were as described in Example 10.
Test index: CRP in serum was used as index, and was determined by enzyme linked immunosorbent assay.

[2] = tested on: MDA in serum and homogenate of COPD model mouse; assay: Effect on MDA in serum and homogenate of COPD model mouse; conditions: ig 7 d
Description: as §1, §2, §3, §4
Group and dose: in Test group 1, the ratio of picrinine, vallesamine, scholaricine and 19-epischolaricine by weight was 9:6:5:1, and the other groups and doses thereof were as described in Example 10.
Test index: MDA in serum and homogenate was used as index, and was determined by thibabituric acid method.

[3] = tested on: Hyp in homogenate of pulmonary fibrosis model mouse; assay: Effect on Hyp in homogenate of pulmonary fibrosis model mouse; conditions: bleomycin pulmonary fibrosis mouse, ig 28 d, dose/kg: prednisone acetate 5 mg, Test group 1 50, 2 25, 3 12.5, picrinine 5.0, vallesamine 3.0, scholaricine 3.5, 19-epi-scholaricine 1.0 mg, x ± SD
Description: (§5) Animal source: 30˜35 g male ICR mouse, from laboratory animal department of Kunming Medical University, License No. SCXK (Dian) 2011-0004.
(§6) Method and route: bleomycin was used to induce mouse pulmonary fibrosis, and after intragastrical administration for 28 d at a dose of 20 mL/kg, the animal was sacrificed at the 29th day.
(§7) Group and dose: Sham group, Model group, Positive control group, prednisone acetate (5 mg/kg) group, Test group 1: picrinine, vallesamine, scholaricine and 19-epischolaricine prepared in Example 1.7 were mixed at different ratios by weight (50 mg/kg), Test group 2: the alkaloid composition (25 mg/kg) prepared in Example 1.5, Test group 3: the alkaloid composition (12.5 mg/kg) prepared in Example 1.6, Picrinine group (5.0 mg/kg), Vallesamine group (3.0 mg/kg), Scholaricine group (3.5 mg/kg), and 19-epischolaricine group (1.0 mg/kg).
(§8) Positive control drug: prednisone acetate tablet, Approval number: H33021207, 5 mg/tablet, produced by Zhejiang Xianju Pharmaceutical Co., Ltd., Batch No. 140146.
(§9) Sample preparation: all the samples were prepared by using 0.5% carboxymethylcellulose sodium (0.5% CMC-Na). […]
Test index: Hyp in homogenate was used as index, and was determined by enzyme linked immunosorbent assay.

[4] = tested on: white blood cell count and classification in BALF of COPD model mouse; assay: Effect on white blood cell count and classification in BALF of COPD model mouse; conditions: COPD mouse (LPS plus smoke exposure 30 days), ig 7 d, dose/kg: dexamethasone 1 mg, Test group 1 50, 2 25, 3 10, picrinine 10, vallesamine 6, scholaricine 7, 19-epi-scholaricine 2 mg, x ± SD
Description: as §1, §2, §3, §4
Group and dose: in Test group 1, the ratio of picrinine, vallesamine, scholaricine and 19-epischolaricine by weight was 48:40:29:10, and the other groups and doses thereof were as described in Example 10.
Test index: total number of white blood cells and inflammatory cell classification in bronchoalveolar lavage fluid (BALF) were used as indexes, and were determined by full-automatic hemocytometer.

[5] = tested on: MDA in serum and BALF of asthma model mouse; assay: Effect on MDA in serum and BALF of asthma model mouse; conditions: ig 7 d, dose/kg: dexamethasone 2.0 mg, Test group 1 50, 2 25, picrinine 5.0, vallesamine 3.0, scholaricine 3.0, 19-epi-scholaricine 3.5 mg, x ± SD
Description: as §1
(§10) Method and route: ovalbumin (OVA) was used to induce mouse asthma model, and after intragastrical administration for 7 d at a dose of 20 mL/kg, the animal was sacrificed at the eighth day.
(§11) Test group 1: picrinine, vallesamine, scholaricine and 19-epischolaricine prepared in Example 1.7 were homogeneously mixed at different ratios by weight (50 mg/kg), Test group 2: the alkaloid composition prepared in Example 1.4 (25 mg/kg). […]
as §4
Group and dose: in Test group 1, the ratio of picrinine, vallesamine, scholaricine and 19-epischolaricine by weight was 8:6:5:1, and the other groups and doses thereof were as described in Example 11.
Test index: MDA in serum and BALF was used as index, and was determined by thiobarbituric acid method.

[6] = tested on: IL-4 in BALF of asthma model mouse; assay: Effect on IL-4 in BALF of asthma model mouse; conditions: ELISA, ig 7 d, dose/kg: dexamethasone 2.0 mg, Test group 1 50, 2 25, picrinine 5.0, vallesamine 3.0, scholaricine 3.0, 19-epi-scholaricine 3.5 mg, x ± SD
Description: as §1, §10, §11, §4
Group and dose: in Test group 1, the ratio of picrinine, vallesamine, scholaricine and 19-epischolaricine by weight was 25:18:15:3, and the other groups and doses thereof were as described in Example 11. […]

[7] = tested on: LDH in serum of pulmonary fibrosis model mouse; assay: Effect on LDH in serum of pulmonary fibrosis model mouse; conditions: bleomycin pulmonary fibrosis mouse, ig 28 d, dose/kg: prednisone acetate 5 mg, Test group 1 50, 2 25, 3 12.5, picrinine 5.0, vallesamine 3.0, scholaricine 3.5, 19-epi-scholaricine 1.0 mg, x ± SD
Description: as §5, §6, §7, §8, §9
Test index: LDH in serum was used as index, and was determined by 2, 4-dinitrophenylhydrazine method.

[8] = tested on: SOD in serum and homogenate of COPD model mouse; assay: Effect on SOD in serum and homogenate of COPD model mouse; conditions: ig 7 d, dose/kg: dexamethasone 1 mg, Test group 1 50, 2 25, 3 10, picrinine 10, vallesamine 6, scholaricine 7, 19-epi-scholaricine 2 mg, x ± SD
Description: as §1, §2, §3, §4
Group and dose: in Test group 1, the ratio of picrinine, vallesamine, scholaricine and 19-epischolaricine by weight was 16:11:12:3, and the other groups and doses thereof were as described in Example 10.
Test index: SOD in serum and lung homogenate was used as index, and was determined by xanthine oxidase method.

[9] = tested on: SOD in serum and BALF of asthma model mouse; assay: Effect on SOD in serum and BALF of asthma model mouse; conditions: ig 7 d, dose/kg: dexamethasone 2.0 mg, Test group 1 50, 2 25, picrinine 5.0, vallesamine 3.0, scholaricine 3.0, 19-epi-scholaricine 3.5 mg, x ± SD
Description: as §1, §10, §11, §4
Group and dose: in Test group 1, the ratio of picrinine, vallesamine, scholaricine and 19-epischolaricine by weight was 12:10:9:2, and the other groups and doses thereof were as described in Example 11.
Test index: SOD in serum and BALF was used as index, and was determined by xanthine oxidase method.

Compound: COC(=O)C1=C2Nc3c(O)cccc3[C@@]23CCN2C[C@@H]([C@@H](C)O)[C@@H]1C[C@H]23 [scholaricine]
- CRP [1]: 24.4 ± 2.4 pg/mL
- content of MDA (serum or homogenate not given) ([2]; vallesamine 6, scholaricine 7, 19-epi-scholaricine 2 mg/kg): significantly decrease
- MDA Homogenate ([2]; lung homogenate, dose/kg: dexamethasone 1 mg, Test group 1 50, 2 25, 3 10, picrinine 10, vallesamine 6, scholaricine 7, 19-epi-scholaricine 2 mg, x ± SD): 6.09 ± 1.25 nmol/mL
- MDA Serum ([2]; serum, dose/kg: dexamethasone 1 mg, Test group 1 50, 2 25, 3 10, picrinine 10, vallesamine 6, scholaricine 7, 19-epi-scholaricine 2 mg, x ± SD): 12.21 ± 3.38 nmol/mL
- Hyp [3]: 6.5 ± 1.5 μg/g prot
- Leukocyte number [4]: 2.5 ± 3.5 ×10^5/mL
- Neutrophil number [4]: 0.66 ± 0.81 ×10^5/mL
- MDA lavage fluid ([5]; BALF): 2.43 ± 1.05 nmol/mL
- MDA Serum ([5]; serum): 9.19 ± 2.77 nmol/mL
- IL-4 [6]: 11.21 ± 3.62 pg/mL
- LDH [7]: 12.5 ± 3.2 U/g prot
- SOD homogenate ([8]; lung homogenate): 58.43 ± 7.04 U/mL
- SOD Serum ([8]; serum): 93.61 ± 12.37 U/mL
- SOD lavage fluid ([9]; BALF): 76.78 ± 8.01 U/mL
- SOD Serum ([9]; serum): 73.36 ± 8.44 U/mL
